According to US4945055A, “Human chorionic gonadotropin releasing factor” (Board of Regents, University of Texas System, priority 1986, dated 1990):
Each block holds one compound with its values, some of them ahead of it.

Tests used:
[1] = system: human chorionic gonadotropin releasing factor (hCG-RF), glycoprotein purified from human term placenta, peptidase activity degrading GnRH; assay: Loss of GnRH immunoreactivity on incubation with hCG-RF (GnRH-RIA after Sephadex G-150); format: biochemical; settings: hCG-RF 41 ug, GnRH 40 ng, 24 h at 4° C.
Experimental: The effect of purified hCG-RF on GnRH immunoreactivity was studied. […] Chromatography of 0.1 ml of the incubate on Sephadex G-150 (1×20 cm in 0.01M TRIS, 0.001M DTT) followed, collecting 1 ml fraction. Immunoreactive GnRH was determined by GnRH-RIA.

[2] = molecular target: placental receptor recognizing synthetic GnRH; settings: read-out: dissociation constant of the placental receptor for synthetic GnRH; cited from earlier work

Compound: bacitracin
reversal of the loss of GnRH immunoreactivity effected by incubation with hCG-RF ([1]; 5000 unit bacitracin added with the buffer): totally reversed

Compound: CC(C)C[C@H](NC(=O)CNC(=O)[C@H](Cc1ccc(O)cc1)NC(=O)[C@H](CO)NC(=O)[C@H](Cc1c[nH]c2ccccc12)NC(=O)[C@H](Cc1c[nH]cn1)NC(=O)[C@@H]1CCC(=O)N1)C(=O)N[C@@H](CCCNC(=N)N)C(=O)N1CCC[C@H]1C(=O)NCC(N)=O [synthetic GnRH, pyro-glu-his-trp-ser-tyr-gly-leu-arg-pro-gly-NH2]
Kd [2]: 100 nM

reversal of the loss of GnRH immunoreactivity effected by incubation with hCG-RF ([1]; 175 mM para-amino-benzamidine added with the buffer): totally reversed
Compound: N=C(N)c1ccc(N)cc1 [para-amino-benzamidine]
